In patent US20100267561A1, “HERBICIDAL PYRIDAZINONE DERIVATIVES” (priority 2007, published 2010):

Experiments:
Type in all cases: in vivo
[1] = tested on: blackgrass (Alopecurus myosuroides); assay: Test B pre-/postemergence plant response; conditions: for Blackgrass plant response rating: 8 g ai/ha
Summary of the method: (§1)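 Seeds were sown and sprayed preemergence, while plants at 2 to 18 cm (1- to 4-leaf stage) got postemergence sprays. Compounds were formulated in a non-phytotoxic solvent mixture with surfactant. After 13 to 15 days in a greenhouse, injury was rated visually against untreated controls, 0 (no effect) to 100 (complete control).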

[2] = tested on: common (oilseed) sunflower (Helianthus annuus); assay: Test B pre-/postemergence plant response; conditions: Preemergence
Summary of the method: as §1

[3] = tested on: common ragweed (Ambrosia elation); assay: Test B pre-/postemergence plant response; conditions: for Ragweed plant response rating: 8 g ai/ha
Summary of the method: as §1

[4] = tested on: goosegrass (Eleusine indica); assay: Test B pre-/postemergence plant response; conditions: for Goosegrass plant response rating: 8 g ai/ha
Summary of the method: as §1

[5] = tested on: johnsongrass (Sorghum halepense); assay: Test B pre-/postemergence plant response; conditions: for Johnsongrass plant response rating: 8 g ai/ha
Summary of the method: as §1

[6] = tested on: yellow nutsedge (Cyperus esculentus); assay: Test B pre-/postemergence plant response; conditions: for Nutsedge, Yellow plant response rating: 8 g ai/ha
Summary of the method: as §1

[7] = tested on: lambsquarters (Chenopodium album); assay: Test B pre-/postemergence plant response; conditions: for Lambsquarters plant response rating: 8 g ai/ha
Summary of the method: as §1

[8] = tested on: wheat (Triticum aestivum); assay: Test B pre-/postemergence plant response; conditions: for Wheat plant response rating: 8 g ai/ha
Summary of the method: as §1

[9] = tested on: cocklebur (Xanthium strumarium); assay: Test B pre-/postemergence plant response; conditions: for Cocklebur plant response rating: 8 g ai/ha
Summary of the method: as §1

[10] = tested on: catchweed bedstraw (Galium aparine); assay: Test B pre-/postemergence plant response; conditions: Preemergence
Summary of the method: as §1

[11] = tested on: giant foxtail (Setaria faberii); assay: Test B pre-/postemergence plant response; conditions: for Foxtail, Giant plant response rating: 8 g ai/ha
Summary of the method: as §1

wild oat (Avena fatua) = assay: Test B pre-/postemergence plant response; conditions: for Oat, Wild plant response rating: 8 g ai/ha
Summary of the method: as §1

[12] = tested on: large crabgrass (Digitaria sanguinalis); assay: Test B pre-/postemergence plant response; conditions: for Crabgrass, Large plant response rating: 8 g ai/ha
Summary of the method: as §1

[13] = tested on: winter barley (Hordeum vulgare); assay: Test B postemergence plant response; conditions: for Plant response rating, Barley: Postemergence, scale 0 to 100, 0 no effect, 100 complete control
Summary of the method: (§2)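 Test compounds were applied postemergence to plants 2 to 18 cm tall (1- to 4-leaf stage). After 13 to 15 days in a greenhouse, each species was visually compared with untreated controls and rated 0 (no effect) to 100 (complete control).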

[14] = tested on: windgrass (Apera spica-venti); assay: Test B postemergence plant response; conditions: for Plant response rating, Windgrass: Postemergence
Summary of the method: as §2

[15] = Postemergence, 16 g ai/ha, scale 0 to 100
[16] = Postemergence, 31 g ai/ha, scale 0 to 100, 0 no effect, 100 complete control
[17] = Postemergence, 62 g ai/ha, scale 0 to 100, 0 no effect, 100 complete control
[18] = Preemergence, 16 g ai/ha, scale 0 to 100 (0 no effect, 100 complete control)
[19] = Preemergence, 31 g ai/ha, 0 to 100 scale, 0 no effect, 100 complete control
[20] = Preemergence, 62 g ai/ha, scale 0 to 100
[21] = 16 g ai/ha, scale 0 to 100 (0 no effect, 100 complete control)
[22] = 31 g ai/ha, 0 to 100 scale, 0 no effect, 100 complete control
[23] = 8 g ai/ha, postemergence, 0-100 scale

Cc1cc(-c2ccc(Cl)cc2)nn1-c1c(OC(=O)C(C)C)cnn(C)c1=O [Compound 34]
15: Plant response rating, Barley ([13]; 62 g ai/ha)
10: Plant response rating, Windgrass ([14]; 16 g ai/ha, scale 0 to 100)
85: Plant response rating, Blackgrass [1, 18] | Plant response rating, Goosegrass [4, 18] | Plant response rating, Oat, Wild (wild oat (Avena fatua); [19])
90: Plant response rating, Blackgrass [1, 17] | Plant response rating, Wheat [8, 17] | Plant response rating, Foxtail, Giant [11, 15] | Plant response rating, Oat, Wild (wild oat (Avena fatua); [15]) | Plant response rating, Oat, Wild (wild oat (Avena fatua); [20])
30: Plant response rating, Wheat [8, 19]
80: Plant response rating, Goosegrass [4, 17] | Foxtail, Giant plant response rating ([11]; postemergence, 0-100 scale) | Plant response rating, Crabgrass, Large [12, 15] | Plant response rating, Windgrass ([14]; 62 g ai/ha, scale 0 to 100, 0 no effect, 100 complete control)
0: Blackgrass plant response rating ([1]; postemergence, 0-100 scale) | Blackgrass plant response rating ([1]; Preemergence, scale 0 to 100) | Plant response rating, Sunflower [2, 21] | Plant response rating, Sunflower [2, 22] | Plant response rating, Sunflower ([2]; 62 g ai/ha, scale 0 to 100) | Sunflower plant response rating ([2]; 8 g ai/ha, scale 0 to 100) | Ragweed plant response rating ([3]; postemergence, 0-100 scale) | Plant response rating, Ragweed [3, 15] | Plant response rating, Ragweed [3, 16] | Plant response rating, Ragweed [3, 17] | Plant response rating, Ragweed [3, 18] | Plant response rating, Ragweed [3, 19] | Plant response rating, Ragweed [3, 20] | Ragweed plant response rating ([3]; Preemergence, scale 0 to 100) | Nutsedge, Yellow plant response rating ([6]; postemergence, 0-100 scale) | Plant response rating, Nutsedge, Yellow [6, 15] | Plant response rating, Nutsedge, Yellow [6, 16] | Plant response rating, Nutsedge, Yellow [6, 17] | Plant response rating, Nutsedge, Yellow [6, 18] | Plant response rating, Nutsedge, Yellow [6, 19] | Plant response rating, Nutsedge, Yellow [6, 20] | Nutsedge, Yellow plant response rating ([6]; Preemergence, scale 0 to 100) | Lambsquarters plant response rating ([7]; postemergence, 0-100 scale) | Plant response rating, Lambsquarters [7, 15] | Plant response rating, Lambsquarters [7, 16] | Plant response rating, Lambsquarters [7, 17] | Plant response rating, Lambsquarters [7, 18] | Plant response rating, Lambsquarters [7, 19] | Plant response rating, Lambsquarters [7, 20] | Lambsquarters plant response rating ([7]; Preemergence, scale 0 to 100) | Wheat plant response rating ([8]; postemergence, 0-100 scale) | Plant response rating, Wheat [8, 18] | Wheat plant response rating ([8]; Preemergence, scale 0 to 100) | Cocklebur plant response rating ([9]; postemergence, 0-100 scale) | Plant response rating, Cocklebur [9, 15] | Plant response rating, Cocklebur [9, 16] | Plant response rating, Cocklebur [9, 17] | Plant response rating, Cocklebur [9, 18] | Plant response rating, Cocklebur [9, 19] | Plant response rating, Cocklebur [9, 20] | Cocklebur plant response rating ([9]; Preemergence, scale 0 to 100) | Plant response rating, Galium [10, 21] | Plant response rating, Galium [10, 22] | Plant response rating, Galium ([10]; 62 g ai/ha, scale 0 to 100) | Galium plant response rating ([10]; 8 g ai/ha, scale 0 to 100) | Barley plant response rating [13, 23] | Plant response rating, Barley ([13]; 16 g ai/ha) | Plant response rating, Barley ([13]; 31 g ai/ha) | Windgrass plant response rating [14, 23]
100: Plant response rating, Blackgrass [1, 19] | Plant response rating, Blackgrass [1, 20] | Plant response rating, Goosegrass [4, 20] | Plant response rating, Johnsongrass [5, 17] | Plant response rating, Johnsongrass [5, 19] | Plant response rating, Johnsongrass [5, 20] | Plant response rating, Foxtail, Giant [11, 16] | Plant response rating, Foxtail, Giant [11, 17] | Plant response rating, Foxtail, Giant [11, 18] | Plant response rating, Foxtail, Giant [11, 19] | Plant response rating, Foxtail, Giant [11, 20] | Plant response rating, Oat, Wild (wild oat (Avena fatua); [17]) | Plant response rating, Crabgrass, Large [12, 17] | Plant response rating, Crabgrass, Large [12, 18] | Plant response rating, Crabgrass, Large [12, 19] | Plant response rating, Crabgrass, Large [12, 20] | Crabgrass, Large plant response rating ([12]; Preemergence, scale 0 to 100)
98: Plant response rating, Goosegrass [4, 19] | Plant response rating, Johnsongrass [5, 16] | Foxtail, Giant plant response rating ([11]; Preemergence, scale 0 to 100)
95: Plant response rating, Johnsongrass [5, 15] | Plant response rating, Johnsongrass [5, 18] | Plant response rating, Oat, Wild (wild oat (Avena fatua); [16]) | Plant response rating, Crabgrass, Large [12, 16]
75: Plant response rating, Blackgrass [1, 15] | Plant response rating, Blackgrass [1, 16] | Johnsongrass plant response rating ([5]; postemergence, 0-100 scale)
50: Goosegrass plant response rating ([4]; postemergence, 0-100 scale)
55: Plant response rating, Goosegrass [4, 15] | Goosegrass plant response rating ([4]; Preemergence, scale 0 to 100)
40: Plant response rating, Wheat [8, 15] | Plant response rating, Wheat [8, 20] | Oat, Wild plant response rating (wild oat (Avena fatua); Preemergence, scale 0 to 100)
70: Plant response rating, Goosegrass [4, 16] | Oat, Wild plant response rating (wild oat (Avena fatua); postemergence, 0-100 scale) | Crabgrass, Large plant response rating ([12]; postemergence, 0-100 scale)
65: Johnsongrass plant response rating ([5]; Preemergence, scale 0 to 100)
